We go through two compounds from patent publication US20170281578A1, “METHODS FOR TREATING METABOLIC DISTURBANCES” (THE BOARD OF REGENTS OF THE UNIVERSITY OF TEXAS SYSTEM, priority 2016, published 2017).

Series [1] can be described thus: Crossover trial in pre- or Stage I hypertension: serum and 24-hour urinary K and Mg. It is filed as in vivo, human. Conditions: 4-week phases, 20 meq K bid; vs placebo phase, p<0.01. The source says:
In the inventors' published study (Vongpatanasin, 2016), 30 patients with pre- (6 subjects) or Stage I (24 subjects) hypertension underwent a crossover trial, whereby they took KMgCit powder (20 meq K, 10 meq Mg and 37 meq citrate twice daily), KCit powder (20 meq K and 20 meq citrate twice daily), KCl powder (20 meq K and 20 meq chloride twice daily), or placebo (microcrystalline cellulose) for four weeks each. Among hypertensive subjects, 17 of 24 received antihypertensive treatment before study participation. All treated subjects received single-drug regimen before participation in the study (6 were on β blockers, 11 on angiotensin receptor blockers, or angiotensin-converting enzyme inhibitors, or calcium channel blockers), which was continued at the same dose throughout the study. None of the subjects had low serum Mg<1.8 mg/dl or serum K<3.5 meq/l or were on diuretic therapy.
Serum K and 24-hour urinary K excretion were increased during KCl, KCit, and KMgCit phases compared with placebo phase (p <0.01 vs placebo). Serum Mg was increased during KMgCit phase compared with placebo and KCl phases (both p<0.01); 24-hour urinary Mg excretion was increased during KMgCit phase compared with placebo and KCit (both p<0.01). 24-hour urinary Mg excretion was higher during KMgCit compared with KCl (p=0.017).

For a further series, the system named is serum triglyceride. Nature of the series: Serum triglyceride in healthy adults on HCTZ with KMgCit or KCl. The format is in vivo, human. The conditions noted are these: from 1 month to 5 months of treatment; with HCTZ 50 mg/day; 40 meq K/day; p=0.09 between groups. The method, then:
In the inventors' prior study (Odvina, & Pak, 2006), previously unpublished data on serum triglyceride were extracted. Eight healthy adult subjects took HCTZ 50 mg/day with KMgCit containing 40 meq K and 20 meq Mg/day for 6 months. Ten subjects received HCTZ 50 mg/day with KC1 40 meq K/day. Serum triglyceride declined by −32±41 mg/dL from 1 month to 5 months of treatment in the KMgCit group; It was underaltered from 1 month to 5 months of KCl treatment (0±31 mg/dL). The difference of the change in serum triglyceride between KMgCit and KCl groups was marginally significant (p=0.09). No baseline or 6 month data were available.

The subject of the next series is serum FGF23. Put plainly: Crossover randomized trial in pre- or Stage I hypertension: serum FGF23. Conditions: 30 patients; after 4 weeks of treatment; 20 meq K twice daily; p=0.05. It is filed as in vivo, human. The method, then: FIG. 4 illustrates effect of KMgCit on serum FGF23.
In the inventors' study, 30 patients with pre- or Stage I hypertension participated in a crossover randomized trial, whereby they took KMgCit powder (20 meq K, 10 meq Mg and 37 meq citrate twice daily) or KCl powder (20 meq K and 20 meq chloride twice daily) for four weeks each. After 4 weeks of treatment, serum samples were analyzed fro FGF23.

Series [2] relates to RAA-SNS, serum aldosterone, fasting glucose, HOMA-IR. The conditions noted are these: cited from earlier work.

With `O=C([O-])CC(O)(CC(=O)[O-])C(=O)[O-].[K+].[K+].[K+]` [KCit powder, potassium citrate], in series [1], the “24-hour urinary K excretion” value is given as “increased” and the “Serum K” value is recorded as “increased”.

Take `[Cl-].[K+]` [KCl powder, potassium chloride]: the “Change in serum triglyceride” value in the series with serum triglyceride was 0 ± 31 mg/dL. Further, the “Serum FGF23” value with serum FGF23 is listed as 53.1±22.2 Rel U/ml. The “CTD-induced activation of RAA-SNS” value in series [2] (KCl supplementation) was “unaffected”. Further, the Serum aldosterone result in series [2] (TZ-treated patients with hypertension, KCl supplementation) was “did not reduce”. In addition, the “CTD-induced fasting hyperglycemia and increased HOMA-IR” value in series [2] (correction of hypokalemia by KCl) is reported as “did not reverse”. Also, in series [1], the “24-hour urinary K excretion” value is “increased” and the “Serum K” value was “increased”.
